{"source": "patent US20040171015A1", "about": "“Cyp450-specific dna probes and primers, and biological applications thereof” (priority 2003, published 2004)", "molecules": {"B1": {"name": "SEQ ID NO: 9: DNA molecule which hybridizes to CYP 2C19 (nucleic acid, listed as Homo sapiens)", "DNA": "TTTCACTATCTGTGATGCTTCTTCTGACCCGTCATCTCACATTTTCCCTTCCCCCAAGATCTAGTGAACATTCAGCCTCCATTAAAAAAGTTTCACTGTGCAAATATATCTGCTATTCCCCATACTCTATAATAGTTACATTGAGT"}, "B2": {"name": "SEQ ID NO: 8: DNA molecule which hybridizes to CYP 2C9 (nucleic acid, listed as Homo sapiens)", "DNA": "TTTGTGTATTATAATTCAAAGGCATTTCTTTTCTGCATGTTCTAAATAAAAAGCATTATTATTTGCTG", "modifications": "DNA, backbone and methylation of C not given here", "notes": "DNA molecule which hybridizes to CYP 2C9"}}, "key": {"CYP 1A1": {"tested_on": "CYP 1A1", "test": "membrane (slot blot) and Northern blot assay of CYP450 mRNA in treated human hepatocytes", "format": "cell-based", "details": "48 hours exposure, 3-MC 5 microM", "description": "(§1) Total RNA contents are measured on a UV spectrophotometer.\n(§2) The labeled cDNA thus produced are then purified."}, "CYP 1A2": {"tested_on": "CYP 1A2", "test": "membrane (slot blot) and Northern blot assay of CYP450 mRNA in treated human hepatocytes", "format": "cell-based", "details": "48 hours exposure, 3-MC 5 microM", "description": "as §1, §2"}, "CYP 3A4": {"tested_on": "CYP 3A4", "description": "(§3) 600 microliters of solution D (pH7; guanadium thiocyanate 4M; sodium citrate 25 mM; sarcosyl 0.5%; and 1.4 ml of beta-mercaptoethanol per 200 ml of solution D) have been added to each well so as to induce cell lysis. […] Are then successively added: 0.1 volume of sodium acetate (2M, pH4), 1 volume of water-saturated phenol and 0.2 volume of chloroform/isoamylalcohol (49/1, V/V). At each step, the suspension is vigorously vortexed, then left to cool on ice for 15-20 min, and centrifigated for 30 min at 4000 g and 4° C. An equal volume of isopropanol is added after removal of the aqueous phase.\n(§4) RNA are then precipitated (1 hour at −20° C.) and centrifuged for 30 min at 4000 g and 4° C. The supernatant is removed and the pellets are re-suspended in 2.7 ml of solution D. 2.7 ml of isopropanol are then added to the suspension, and the RNA are again precipitated (1 hour at −20° C.) and centrifugated. The pellets are washed with 5.4 ml of 70% ethanol. After a final centrifugation and removal of the supernatant, the pellets are air-dried, and re-suspended in sterile water containing DEPC (DEPC 1/1000 in water, then sterilization). Total RNA contents are measured on a UV spectrophotometer.\n(§5) 25 micrograms of total RNA have been placed into contact with oligo-dT (0.4 mM final of an equimolar composition of oligod(T) and of three oligosd(T) which have an A or a G or a C in 3′), and heated to 70° C. for 10 min, then incubated for 5 min on ice so as to allow oligo-dT hybridization on polyA RNA.\n(§6) The labeled cDNA are then hybridized with the filters (48 hours at 42° C.). […] Filters have then been washed with SSC 2× buffer without SDS for 30 min at 42° C., and exposed overnight in a phosphorimager cassette.\n(§7) For comparison purposes, Northern blots comprising 10 micrograms of total RNA have been incubated for hybridization with each cDNA probe separately. Quantifications are achieved by measuring band intensities per 18S quantity (as evaluated by ethidium bromide coloration)."}, "CYP450": {"tested_on": "CYP450", "details": "known inducers used for validation; cited from earlier work"}, "CYP 3A5": {"tested_on": "CYP 3A5", "details": "hepatocytes", "description": "as §3, §4, §5, §6, §7"}, "CYP 3A7": {"tested_on": "CYP 3A7", "details": "hepatocytes", "description": "as §3, §4, §5, §6, §7"}, "CYP 14 sub-family": {"tested_on": "CYP 14 sub-family", "details": "human hepatocytes, 48 hours exposure; PB 1 microM, RIF 50 microM", "method": "RNA are then precipitated (1 hour at −20° C.) and centrifuged for 30 min at 4000 g and 4° C. The supernatant is removed and the pellets are re-suspended in 2.7 ml of solution D. 2.7 ml of isopropanol are then added to the suspension, and the RNA are again precipitated (1 hour at −20° C.) and centrifugated. The pellets are washed with 5.4 ml of 70% ethanol. After a final centrifugation and removal of the supernatant, the pellets are air-dried, and re-suspended in sterile water containing DEPC (DEPC 1/1000 in water, then sterilization). Total RNA contents are measured on a UV spectrophotometer. […]"}, "CYP450 isoforms": {"tested_on": "CYP450 isoforms", "test": "specificity assays of the cDNA probes (hybridization on filters and Northern blot)", "format": "binding, human", "details": "32P-labeled probe, filters with plasmidic DNA / 3′-NTR, Northern blot of total RNA", "source_text": "On nylon® membrane filters, the following DNA sequences were deposited:\neither the sequences obtained by amplification of 50 nanograms of plasmidic DNA as described in the above example 1, followed by purification and UV spectrophotometry dosage (Power Wave X2, Biotek instruments®, St Quentin en Yvelines, France),\nor plasmidic DNA (50 nanograms of linearized plasmid containing a probe inserted therein, or of empty pUC plasmid) obtained from the clones described in the above example 1 after linearization by Bam H1 (20 IU for 20 micrograms of plasmidic DNA, 1 hour at 37° C.).\nThe amplified sequences as well as the plasmidic ones were denatured by EDTA (final concentration of 10 mM, 10 min at 65° C.) and then by NaOH (final concentration of 0.1 M, 30 min at ambient temperature), and neutralized by SSC6× buffer, before being deposited onto a nylon® membrane (Biosupport®, Pall, Portsmouth, UK). Binding to the membrane was achieved by exposure to UV for 4 min and heating at 80° C. for 2 hours.\nThree types of specificity assays have been performed:\nintra-probe specificity: each cDNA probe (SEQ ID NO: 1-14) has been labeled with ^32P following Megaprime® DNA Labelling System (Amersham Pharmacia Biotech, Elancourt, France) and according to random primer polymerization. […]"}}, "note": "Like-named read-outs stand apart in the source and are kept apart here."}
{"molecule": "Cc1ccc2cc3c(ccc4ccccc43)c3c2c1CC3", "note": "[3-methylcholanthrene]", "values": [{"measurement": "change in CYP 1A1 (hybridization signal of reverse-transcribed total RNA)", "setting": "CYP 1A1", "value": "increase"}, {"measurement": "change in CYP 1A2 (hybridization signal of reverse-transcribed total RNA)", "setting": "CYP 1A2", "value": "also but more weakly"}, {"measurement": "change in CYP 3A4 (hybridization signal of reverse-transcribed total RNA)", "setting": "CYP 3A4; human hepatocytes, 48 hours exposure, 3-MC 5 microM, PB 1 microM, RIF 50 microM", "value": "decrease"}, {"measurement": "CYP450 induced", "setting": "CYP450", "value": "CYP 1A"}]}
{"molecule": "CCC1(c2ccccc2)C(=O)NC(=O)NC1=O", "note": "[phenobarbital, Phenobarbital]", "values": [{"measurement": "change in CYP 3A4 (hybridization signal of reverse-transcribed total RNA)", "setting": "CYP 3A4; hepatocytes", "value": "strong decrease"}, {"measurement": "variation of CYP 3A5 (hybridization signal)", "setting": "CYP 3A5", "value": "no variation"}, {"measurement": "variation of CYP 3A7 (hybridization signal)", "setting": "CYP 3A7", "value": "no variation"}, {"measurement": "variation of CYP 14 sub-family (hybridization signal)", "setting": "CYP 14 sub-family", "value": "no variation"}, {"measurement": "CYP450 induced", "setting": "CYP450", "value": "CYP 3A"}]}
{"molecule": "B1", "values": [{"measurement": "hybridization specificity of the probe (cross-hybridization with other CYP450 isoforms, empty plasmid, other RNA from human hepatocytes, 3′-NTR)", "setting": "CYP450 isoforms", "value": "may hybridize in the 3′-NTR region of CYP 2C9"}]}
{"molecule": "B2", "values": [{"measurement": "hybridization specificity of the probe (cross-hybridization with other CYP450 isoforms, empty plasmid, other RNA from human hepatocytes, 3′-NTR)", "setting": "CYP450 isoforms", "value": "only hybridizes to its CYP 2C9 target"}]}
